Test results published in patent publication US20250115582A1, “MOLECULAR GLUE DEGRADERS AND METHODS OF USING THE SAME” (Monte Rosa Therapeutics, Inc., priority 2022, published 2025).

Key:
[1] = target: T1, CK1α (Homo sapiens, UniProt P48729+Q96SW2); assay: CK1α NanoBiT assay (HiBiT-tagged CSNK1A1 in HEK293 clonal line); type: cell-based; conditions: HEK293 HiBiT-CSNK1A1/LgBiT cells, 24 h incubation, luminescence
T1 construct: HEK293 clonal line with CRISPR KI HiBiT tag on CSNK1A1; host or cells: HEK293 clonal line, CRISPR HiBiT knock-in at CSNK1A1, stably expressing LgBiT
T1 sequence (P48729 whole entry): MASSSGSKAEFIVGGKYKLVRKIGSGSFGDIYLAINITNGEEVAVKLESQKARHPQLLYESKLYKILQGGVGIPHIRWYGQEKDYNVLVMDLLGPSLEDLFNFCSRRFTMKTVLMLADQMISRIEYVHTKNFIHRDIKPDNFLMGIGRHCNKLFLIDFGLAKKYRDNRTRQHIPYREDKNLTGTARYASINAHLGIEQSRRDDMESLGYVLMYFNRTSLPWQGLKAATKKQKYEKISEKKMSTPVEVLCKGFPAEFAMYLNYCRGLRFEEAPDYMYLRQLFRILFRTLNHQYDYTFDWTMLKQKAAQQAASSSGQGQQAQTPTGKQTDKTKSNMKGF
T1 sequence (Q96SW2 whole entry): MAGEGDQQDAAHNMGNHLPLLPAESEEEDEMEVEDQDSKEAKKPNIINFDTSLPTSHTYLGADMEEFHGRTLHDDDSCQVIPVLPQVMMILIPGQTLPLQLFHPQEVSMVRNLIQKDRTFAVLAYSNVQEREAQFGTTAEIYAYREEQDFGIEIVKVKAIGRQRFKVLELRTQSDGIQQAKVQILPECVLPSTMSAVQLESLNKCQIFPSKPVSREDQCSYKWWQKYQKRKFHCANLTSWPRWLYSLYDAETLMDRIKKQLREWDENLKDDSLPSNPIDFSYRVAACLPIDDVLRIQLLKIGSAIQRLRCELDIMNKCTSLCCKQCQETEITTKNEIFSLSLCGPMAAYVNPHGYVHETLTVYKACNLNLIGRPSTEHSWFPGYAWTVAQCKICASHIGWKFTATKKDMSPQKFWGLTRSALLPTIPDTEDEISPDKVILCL
T1 sequence (Q16531 2-1140 partner limits assumed): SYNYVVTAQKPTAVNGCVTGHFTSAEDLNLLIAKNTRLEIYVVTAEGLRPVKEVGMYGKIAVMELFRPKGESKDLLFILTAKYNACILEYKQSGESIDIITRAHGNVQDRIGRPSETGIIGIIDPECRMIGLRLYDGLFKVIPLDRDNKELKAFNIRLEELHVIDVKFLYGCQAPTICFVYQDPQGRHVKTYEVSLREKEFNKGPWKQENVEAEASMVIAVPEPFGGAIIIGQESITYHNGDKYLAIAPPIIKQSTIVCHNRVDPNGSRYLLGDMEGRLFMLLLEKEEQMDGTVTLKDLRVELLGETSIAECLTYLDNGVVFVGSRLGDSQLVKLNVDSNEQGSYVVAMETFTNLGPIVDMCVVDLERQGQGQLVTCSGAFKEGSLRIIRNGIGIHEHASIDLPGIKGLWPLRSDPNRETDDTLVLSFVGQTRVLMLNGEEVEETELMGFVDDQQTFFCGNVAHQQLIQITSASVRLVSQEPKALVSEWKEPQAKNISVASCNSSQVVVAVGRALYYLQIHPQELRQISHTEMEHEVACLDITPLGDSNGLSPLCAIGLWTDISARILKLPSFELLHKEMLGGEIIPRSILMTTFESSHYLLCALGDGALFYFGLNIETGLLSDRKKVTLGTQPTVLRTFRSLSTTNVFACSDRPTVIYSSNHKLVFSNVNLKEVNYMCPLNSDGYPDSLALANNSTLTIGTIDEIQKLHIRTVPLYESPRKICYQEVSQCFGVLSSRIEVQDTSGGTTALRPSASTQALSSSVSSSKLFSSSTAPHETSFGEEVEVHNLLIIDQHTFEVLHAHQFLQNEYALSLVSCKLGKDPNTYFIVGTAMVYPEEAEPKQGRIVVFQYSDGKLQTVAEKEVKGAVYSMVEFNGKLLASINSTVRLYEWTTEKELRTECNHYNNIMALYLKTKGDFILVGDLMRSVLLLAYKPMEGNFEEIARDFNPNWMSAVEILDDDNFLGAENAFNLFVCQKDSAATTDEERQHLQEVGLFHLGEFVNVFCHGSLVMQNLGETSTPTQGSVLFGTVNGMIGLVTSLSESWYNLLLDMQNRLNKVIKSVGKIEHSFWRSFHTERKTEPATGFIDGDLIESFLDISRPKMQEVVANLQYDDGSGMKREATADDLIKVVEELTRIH
Summary of the method: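 HiBiT knock-in CSNK1A1 HEK293 cells stably expressing LgBiT were plated at 5000 cells/well in DMEM/10% FBS with 0.2% Endurazine live-cell substrate and pre-incubated 16 h. Compound was added to a final […] for 24 h at 37 °C before the luminescence read. Signal was normalised to plate controls, and DC50 came from a 3-parameter logistic fit (hillslope 1).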

[2] = system: SKCO1; assay: GI50 growth inhibition, CyQUANT, SKCO1; type: cell-based; conditions: Homo sapiens, SK-CO-1, SKCO1 cells, 120 to 168 hours
Procedure: (§1) SKCO1, LS180, and LS174T cell lines were purchased from ATCC. CW2 cell line was purchased from Riken. GP2D cell line was purchased from Sigma/ECACC. All cell lines were cultured in manufacturer's recommended media at 37° C., 5% CO2. Briefly, cells were suspended in 200 μL of media and seeded at 300 to 1,800 cells per well in tissue culture treated 96-well plates with black walls and clear bottom. Plates were incubated overnight and initial (T0) read was performed the following day using CyQUANT Direct Cell Proliferation Assay Kit (Thermo Fisher Scientific) according to manufacturer's protocol. All compounds were solubilized in DMSO and prepared at 3-fold serial dilution, using 9 points starting at 30 μM as highest concentration, administered to cells and incubated for 120 to 168 hours, at which point CyQUANT assay measurement was performed using Acumen Cellista instrument (Ex/Em 480/520 nm). Media-only wells were used as blank, and 0.3% DMSO was used as DMSO-treated cell control. Growth inhibition (percent response) was calculated using the following formula in Excel: “=if ([Compound treated Day N]>[Untreated Day 0, AVG], ([Compound treated Day N]−[Untreated Day 0, AVG])/([Untreated Day N]−[Untreated Day 0, AVG])*100, ([Compound Treated Day N]−[Untreated Day 0, AVG])/([Untreated Day 0, AVG])*100)”. GI50 is the response corresponding to the 50% of untreated control.
(§2) GI50 data are reported in Tables 4a, 4b, 4c, 4d, and 4e for compounds in Table 1. In Tables 4a, 4b, 4c, 4d, and 4e below, According to the code, A represents a GI50 value of ≤0.1 μM, B represents a GI50 value>0.1 μM and ≤1 μM, C represents an GI50 value>1 μM.

[3] = system: CW2; assay: GI50 growth inhibition, CyQUANT, CW2; type: cell-based; conditions: Homo sapiens, CW-2, CW2 cells, 120 to 168 hours
Procedure: as §1, §2

[4] = system: GP2D; assay: GI50 growth inhibition, CyQUANT, GP2D; type: cell-based; conditions: GP2D cells, 120 to 168 hours
Procedure: as §1, §2

[5] = system: LS180; assay: GI50 growth inhibition, CyQUANT, LS180; type: cell-based; conditions: Homo sapiens, LS180 cells, 120 to 168 hours
Procedure: as §1, §2

[6] = system: LS174T; assay: GI50 growth inhibition, CyQUANT, LS174T; type: cell-based; conditions: Homo sapiens, LS174T cells, 120 to 168 hours
Procedure: as §1, §2

[7] = Mouse oral PK at 10 mg/kg; type: in vivo; conditions: male BALB/c mice, PO 10 mg/kg, plasma
Procedure: Male BALB/c mice were fasted overnight and administered a discrete, PO dose of Compound 154 or Compound 147 at 10 mg/kg.
Blood samples were collected serially from three animals/time-point following PO administration of the test compounds to the mice and placed in tubes containing K2EDTA. The blood samples were centrifuged, and the aliquots of the resulting plasma stored frozen at −60 to −90° C.
The plasma samples were analyzed by LC-MS/MS to determine concentrations of the test compounds. The in-life portion of the study and the bioanalysis of plasma samples was conducted at Wuxi (China).
The pharmacokinetic parameters for compound 154 or compound 147 were calculated by non-compartmental analysis using Phoenix WinNonlin software.

| DC50 [1] | GI50 [2] | Tmax [7] | AUC ([7]; Mean ± SD) | AUC(0-t) ([7]; Mean ± SD) | Cmax ([7]; Mean ± SD) | half-life ([7]; Mean ± SD) | SMILES | GI50 [3] | GI50 [4] | GI50 [5] | GI50 [6] |
| --- | --- | --- | --- | --- | --- | --- | --- | --- | --- | --- | --- |
| < 0.1 µM | 0.1 to 1 µM | 0.5 h | 1.21 ± 0.235 µg·h/mL | 1.17 ± 0.258 µg·h/mL | 0.574 ± 0.0768 µg/mL | – | O=C1CCC(N2Cc3cc(NC(=O)c4ccc(Cl)cc4)ccc3C2=O)C(=O)N1 (stereo not drawn) [Compound 147] | 0.1 to 1 µM | > 1 µM | > 1 µM | > 1 µM |
| < 0.1 µM | < 0.1 µM | 1 h | 50.9 ± 10.4 µg·h/mL | 50.9 ± 10.3 µg·h/mL | 12.9 ± 2.56 µg/mL | 2.19 ± 0.24 h | O=C1CCC(N2Cc3cc(NC(=O)c4ncn(-c5ccccc5)c4C(F)(F)F)ccc3C2=O)C(=O)N1 (stereo not drawn) [Compound 154, N-(2-(2,6-dioxopiperidin-3-yl)-1-oxoisoindolin-5-yl)-1-phenyl-5-(trifluoromethyl)-1H-imidazole-4-carboxamide] | < 0.1 µM | 0.1 to 1 µM | 0.1 to 1 µM | 0.1 to 1 µM |
